Reference: patent US8609409B2, “Methods and compositions for cell culture platform” (Clemson University, priority 2009, dated 2013)
“Also recorded” adds a separate entry of the source. Where no end group is shown, it is not given here.

Experiments:
in vitro cell cultures = experiment: safety and cytotoxic profile of genipin; format: cell-based
Description: Chitosan and gelatin are two naturally occurring polymers. Chitosan is a polysaccharide formed by cross linkage of multiple monosaccharide units. It has active acetyl groups available for cross linkage. At acidic pH, chitosan is able to undergo polymerization. Gelatin is a peptide polymer and chemically derived from denatured collagen. […] Chitosan and gelatin co-polymer can be created by mixing chitosan with gelatin using a standard and well known procedure that involves creating acidic pH for chitosan polymerization followed by mixing with heated and stirred gelatin solution. However there are two disadvantages of this approach—high osmolarity of the resultant solution (>500 mM) and acidic pH. There are also concerns for cytotoxicity to biological tissues at such high concentrations. These disadvantages render the use of this copolymer useless for clinical application, In the present invention, chitosan and gelatin were cross linked by two different approaches—the first was a covalent linkage using genipin followed by using ionic cross linkage using glycerol phosphate. Genipin is a plant derived cross linker and quite cheap. […] This concentration of genipin was added to chitosan and gelatin mixture. Genipin is able to covalently link both the saccharide and amine groups available in chitosan and gelatin, respectively. This creates a polysaccharide-peptide cross linkage. […]

[1] = system: Human neural progenitor cells (hNPCs); experiment: hNPC differentiation on coated cover slips; format: cell-based; conditions: 2 weeks, media without FGF-2 and EGF
Protocol: (§1) Human neural progenitor cells were obtained from Millipore (Billerica, Mass.). The stem cell is an immortalized neural progenitor cell line derived from the ventral mesencephalon region of human fetal brain and immortalized by retroviral transduction with the v-myc oncogene. In conventional culture, laminin (20 μg/mL) was used to coat tissue culture plastic-wares at least 2 h before hNPC seeding. Human NPCs were maintained in ReNcell Neural Stem Cell Medium (Millipore) with FGF-2 (20 ng/mL) and EGF (20 ng/mL). Human NPCs were incubated at 37° C. under 5% CO2 and used before passage 5 in this study. For cell adhesion assays, cells were removed from the plate using Accutase, aspirated in growth media, and seeded on peptide or laminin coated substrates at a density of 50, 000 cells/cm^2. For differentiation study, hNPCs were cultured with the medium without FGF-2 and EGF.
The differentiation of hNPCs on the tested surfaces was assayed by immunocytochemistry. Human NPCs were cultured for 2 weeks with differentiation media without growth factors FGF-2 and EGF. The cells were fixed with 4% (w/v) paraformaldehyde, treated with 5% goat serum in PBS to block non-specific reactivity and incubated overnight at 4° C. with primary antibodies, such as β III tubulin and glial fibrillary acidic protein (GFAP). After washing with PBS three times, the samples were incubated with the secondary antibodies at room temperature for 3 h. Then the nuclei were counterstained with DAPI for 30 min. The samples were imaged using the same microscope as described before. At least 6 random fields per surface were analyzed for each group.

[2] = system: Human neurospheres (hNPCs); experiment: Human neurospheres cultured inside hydrogels conjugated with peptides; format: cell-based
Protocol: Neurospheres with uniform sizes were fabricated using a robotic fabrication system developed in our lab. Briefly, stamps with micronipple array were designed in SolidWorks and fabricated using ultra-precision lathe. The automatic neurospheres fabricator was built on a TT-C3-4040 robot (IAI Corporation, Shizuoka, Japan) with electric triggered gripper to pick up the stamp and pipette tip uptake and ejection actuator to handle liquid. Agarose solution (2% w/w) was prepared by built-in heating elements in the robot platform. The robot was programmed to first add agarose solution to culture dishes. Then the robot picked up the stamp with micronipple arrays on the bottom and pressed on the agarose solution at room temperature for 2 min. Then the highly uniform size microwells were formed in the agarose gel. Human NPC suspension was uptake by the robot and added to the culture well with microwell arrays. After 24 h of culture at 37° C. and 5% CO2, uniform sized neurospheres were formed for this study use. For 3D culture, human neurospheres with uniform size were mixed with hydrogel precursor solutions before hydrogel formation.
Viability of cells inside hydrogels was examined using LIVE/DEAD Viability Kit, which is a two color fluorescent assay based on differential permeability of live and dead cells and allows preservation of the distinctive staining pattern for a couple of hours after post-fixation with 4% (w/v) glutaraldehyde. Live cells were stained with green fluorescent SYTO 10; and dead cells with compromised cell membranes were stained with red fluorescent ethidium homodimer-2. […]
We quantified the cell migration by taking measurements of the distance between the edge of spheres and the cell bodies at their outer perimeters. FIG. 26 presents quantification of cell migration from neurospheres cultured inside hydrogels conjugated with lam-IKVAV of 100 μM and our novel IKVAV peptide of different concentrations of 0, 10, 50, and 100 μM at the day 3, 7, and 21. […]

[3] = system: Human neural progenitor cells (hNPCs); experiment: hNPC attachment, morphology and proliferation on gold-coated cover slips; format: cell-based; conditions: for hNPC attachment: day 1; for state of attached hNPCs: day 10
Protocol: as §1
The lam-IKVAV and our synthesized peptide were conjugated to gold-coated cover slips. For gold-coating on glass surfaces, cover slips were first cleaned with ethanol by sonication for 30 min. Then gold was coated on the cover slips by a sputter coater. For peptide and laminin coating, the peptide (150 μg/mL or 100 μM) or laminin (20 μg/mL) solutions were applied on the cover slips for at least 2 h. Then the solutions were removed from the slips and washed with phosphate buffered saline (PBS) for three times. Atomic force microscope (AFM) was used to examine the 3D configuration of the peptides on the surface.
To determine whether peptide-functionalized surfaces can support cell attachment and long-term culture and proliferation, hNPCs were cultured in complete growth medium, which contains FGF-2 and EGF to maintain hNPCs in the undifferentiated state. Cells were incubated at 37° C. with media changed every other day as we routinely culture hNPCs in laminin coated substrates. At the day 1, 5, and 10, cells were assayed with CyQuant (Invitrogen). The cell number was generated through a standard curve.
(§2) Morphology of cells was examined by immunostaining of actin. Cells were fixed with 4% (w/v) paraformaldehyde, permeabilized with 0.5% Triton X-100 (t-octylphenoxyplyethoxy-ethanol), and stained with Alexa Fluor-543 Phalloidin for 30 min. The nuclei were counterstained with 1 μg/mL DAPI for 30 min. The cells were imaged using a Leica TCS SP5 laser scanning confocal microscope (Bannockburn, Ill.).

[4] = Rheological characterization of PEG hydrogels conjugated with peptides; format: physicochemical; conditions: 4-arm thiolated PEG 2% + PEGTA 2%, our peptide 10, 50, 100 μM; for start of gelation process (G′>G″): 37° C., lam-IKVAV 100 μM
Protocol: Rheometer (AR1000, TA Instruments) was used to measure hydrogel mechanical properties, such as storage modulus (G′) and loss modulus (G″), and gelation time^8. Briefly, the time sweep was performed to monitor the in situ gelation at 37° C., recording the temporal evolution of G′ and G″. Frequency sweep test was used to obtain information about the stability of hydrogel structures. The stress sweep was set up by holding the frequency 1 Hz constant while increasing the stress level from 1 to 10 Pa. […] Oscillatory stress sweep allowed determination of G′ of hydrogels.
(§3) The lam-IKVAV peptide and our synthesized peptide of different concentrations were conjugated to PEG hydrogels through addition reaction of peptide cys thiols onto the ends of a PEGTA crosslinker as described before^9. Briefly, peptides containing stock solutions (100 μM) were prepared in the PEGTA stock solution (2% w/w) and stirred for 2 h at room temperature. In the peptide-linker stock solutions, the molar ratio of peptides to PEGTA was 1:20. The reaction kinetics of conjugate addition of cys-containing IKVAV peptides to PEGTA was followed using 5,5′-dithio-bis(2-nitrobenzoic acid) (DTNB) reagent according to previous study^9. Additional PEGTA solutions with lower peptide concentrations of 50 and 10 μM were prepared by diluting the stock solution with peptide-free […] solution (peptide: PEGTA: 1:40 and 1:200, respectively). Then PEGTA solutions containing different concentrations of peptides were added to 4-arm thiolated PEG (2% w/w) solution and mixed thoroughly to form hydrogels.

[5] = system: Human neural progenitor cells (hNPCs); experiment: hNPCs cultured on the surface of hydrogels conjugated with peptides; format: cell-based; conditions: for hNPC attachment and proliferation on hydrogel surface: lam-IKVAV 100 μM, our peptide 10 and 100 μM
Protocol: as §3, §2
Human NPCs were cultured on the surface of hydrogels with maintain media for 7 days. Without any bioactive peptide, hNPCs could not attach on the surface of blank PEG hydrogels (FIG. 22B). The cells formed spheres by themselves at the day 3. […] These attached cells proliferated on the surface as the function of time (FIGS. 22C and 22D). […] There was no difference about the morphology of hNPCs between these two groups.

Row | Molecule | concentration found to be safe (in vitro cell cultures) [µM] | cells differentiated into astrocytes (GFAP+) [1] [%] | cells differentiated into neurons (β III tubulin+) [1] [%] | cells differentiated into astrocytes (GFAP+) ([1]; listed as our short peptide) | peptide density with maximum enhancement of cell migration ([2]; conjugated to PEG hydrogels) [µM] | distance of hNSCs migration from neurospheres ([2]; peptide 10 μM, day 3, 7 and 21) [fold] | effect on cell migration from neurospheres ([2]; peptide concentration higher than 10 μM) | attachment and proliferation compared with laminin coated surface [3] | hNPC morphology / spreading [3] | hNPC attachment [3] | state of attached hNPCs [3] | start of gelation process (G′>G″) [4] [min] | storage modulus G′ ([4]; at 2 h) | hNPC morphology on hydrogel surface ([5]; day 7, 10 and 100 μM) | hNPC attachment and proliferation on hydrogel surface [5] | hNPC attachment and proliferation on hydrogel surface ([5]; listed as our short peptide)
1 | COC(=O)C1=CO[C@@H](O)[C@@H]2C(CO)=CC[C@H]12 [genipin] | 400 | – | – | – | – | – | – | – | – | – | – | – | – | – | – | –
2 | Ac-Cys-Cys-Arg-Arg-Ile-Lys-Val-Ala-Val-Trp-Leu-Cys (Ac-CCRRIKVAVWLC-OH; cysteine pairing not given here) [our novel peptide] | – | 33 | 54 | about 30% | 10 | 2 | inhibitory effects on cell migration | no significant difference | spread more evenly | significantly much more cells attached compared to lam-IKVAV | totally confluent on the whole surface | 40 | about 600 Pa | displayed spreading cytoskeletons | improved hNPC attachment, spreading and proliferation | cells attached at the day 1
3 | CSRARKQAASIKVAVSADR [lam-IKVAV, commercial laminin IKVAV peptide from American Peptide Company, reference compound] | – | – | – | – | – | – | – | – | preferred to aggregate together | very few cells attached | floated off the surface | 30 | – | – | aggregated together; also recorded: did not support any hNPC attachment | –
4 | laminin: mouse laminin, whole ECM protein used as coating (20 μg/mL) [reference compound] | – | 74 | 11 | – | – | – | – | – | – | – | – | – | – | – | – | –
